These are literature values, as cited in patent US6972176B2, “KVLQT1—a long QT syndrome gene” (University of Utah Research Foundation, priority 1995, dated 2005).

In the series the target is T1, IKs in isolated myocytes (Cavia porcellus, UniProt O70344).
T1 construct: host or cells: isolated cardiac myocytes
T1 sequence (O70344 1-671): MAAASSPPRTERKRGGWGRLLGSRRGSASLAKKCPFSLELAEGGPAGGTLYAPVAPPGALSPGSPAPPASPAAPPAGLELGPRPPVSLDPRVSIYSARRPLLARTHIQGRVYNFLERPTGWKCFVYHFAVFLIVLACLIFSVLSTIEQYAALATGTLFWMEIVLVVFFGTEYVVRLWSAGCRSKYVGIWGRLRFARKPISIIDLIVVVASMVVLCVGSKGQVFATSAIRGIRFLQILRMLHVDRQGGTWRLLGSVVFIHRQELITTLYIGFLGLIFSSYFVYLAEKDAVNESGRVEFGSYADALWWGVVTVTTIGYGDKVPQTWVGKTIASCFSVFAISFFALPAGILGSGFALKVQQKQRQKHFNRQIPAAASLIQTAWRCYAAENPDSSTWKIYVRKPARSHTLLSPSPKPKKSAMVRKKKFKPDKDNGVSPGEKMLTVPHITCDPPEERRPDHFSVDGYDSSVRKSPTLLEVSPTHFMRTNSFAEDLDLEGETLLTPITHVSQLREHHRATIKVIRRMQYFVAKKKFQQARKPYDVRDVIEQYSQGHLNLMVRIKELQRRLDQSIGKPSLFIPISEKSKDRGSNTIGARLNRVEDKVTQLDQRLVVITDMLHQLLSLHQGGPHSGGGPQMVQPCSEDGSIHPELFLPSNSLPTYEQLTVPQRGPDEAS
Particulars: Balser et al, 1991.

On to `C=C[C@H]1C[N@@]2CC[C@H]1C[C@@H]2[C@@H](O)c1ccnc2ccc(OC)cc12` [Quinidine], for which the “block of IKs” value is 40-50%.
